Test results published in publication PMC5514153, “Targeting PTPRZ inhibits stem cell-like properties and tumorigenicity in glioblastoma cells” (Scientific Reports, 2017).

Biological target: T1, PTPRG V1038F (Homo sapiens, UniProt P23470, V1038F)
T1 construct: Point mutants of the PTPRZ1-ICR, PTPRG-ICR, and PTPN1 catalytic domain were generated; GST (N); made in house
Test: Inhibitor sensitivity of point mutant PTPRG V1038F
Type: biochemical
Settings: 10 µM, vs wild-type PTPRG
Description: Figure 5 Structural basis for PTPRZ inhibition of NAZ2329. (A) An enlarged view of the X-ray structure of human PTPRZ1-D1 complexed with NAZ2329 (PDB ID: 5H08) (left), X-ray structure of the apo (open) form of PTPRZ1-D1 (PDB ID: 5AWX, ref. [6], middle) and a computer-modeled structure of the closed form of PTPRZ1-D1 complexed with a competitive inhibitor, SCB4380 (ref. [6], right), are shown. PTPRZ1-D1 is shown as a gray surface representation, in which Cys1933 at the active site and Val-1911 at the bottom of the allosteric pocket are indicated in red and yellow, respectively. Inhibitors are colored according to the atomic species in a stick figure representation as follows: oxygen (red), nitrogen (blue), sulfur (yellow), and carbon (green). The bottom figures show the conformation of the WPD loop (orange) as cartoon representations, in which Asp1901 and Cys1933 are indicated by orange and red spheres, respectively. Side chains of Arg1939 at the active site, Met1902 in the WPD loop, and Val-1911 at the bottom of the allosteric binding area are also shown in the stick representation. (B) LigPlot representation of the NAZ2329 interaction with PTPRZ1-D1. The predicted hydrogen bonds (broken black lines) and residues (red spoked arcs) involved in the hydrophobic interaction are shown. […]

T1 sequence (P23470 763-1445 V1038F limits assumed): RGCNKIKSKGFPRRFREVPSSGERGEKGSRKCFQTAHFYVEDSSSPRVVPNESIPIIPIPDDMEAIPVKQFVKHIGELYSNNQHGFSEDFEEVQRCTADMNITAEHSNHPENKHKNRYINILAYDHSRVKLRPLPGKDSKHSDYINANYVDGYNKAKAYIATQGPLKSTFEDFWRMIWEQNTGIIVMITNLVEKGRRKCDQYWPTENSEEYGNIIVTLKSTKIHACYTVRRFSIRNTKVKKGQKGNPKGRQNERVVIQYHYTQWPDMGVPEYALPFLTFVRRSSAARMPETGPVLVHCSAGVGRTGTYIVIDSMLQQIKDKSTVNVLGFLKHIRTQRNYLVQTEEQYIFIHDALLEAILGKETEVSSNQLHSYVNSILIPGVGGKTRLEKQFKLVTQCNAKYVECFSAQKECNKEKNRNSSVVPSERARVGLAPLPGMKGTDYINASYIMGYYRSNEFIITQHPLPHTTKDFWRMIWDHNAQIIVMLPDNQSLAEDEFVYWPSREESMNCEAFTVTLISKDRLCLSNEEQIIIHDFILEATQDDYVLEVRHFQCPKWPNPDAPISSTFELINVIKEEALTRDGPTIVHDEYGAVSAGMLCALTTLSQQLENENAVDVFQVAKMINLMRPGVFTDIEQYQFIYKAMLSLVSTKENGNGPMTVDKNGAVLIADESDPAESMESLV

effect of V1038F mutation on sensitivity to inhibitor: resulted in resistance
SMILES: CCOc1ccc(C(F)(F)F)cc1CSc1ccsc1C(=O)NS(=O)(=O)c1ccccc1 [NAZ2329]
